Laboratory results: US12495801B2, “Bacillus subtilis JCK-1398 strain inducing resistance in various plants, and composition and method for controlling pine wilt disease by using same” (Republic of Korea (National institute of forest science), priority 2020, dated 2025)

Legend:
Assay type in all cases: in vivo
[1] = system: Xanthomonas euvesicatoria; test: Control effect against bacterial spot on chili pepper plants; details: control agrochemical, 1,000-fold diluted solution
Protocol: To 500-fold and 5,000-fold diluted solutions of a spray-dried powder of the JCK-1398 strain prepared by the same method as in Example 8 were added the surfactant Tween® 20 (250 μg/ml), and then 8- to 9-leaf stage chili pepper plants (Hungnong Seed, Bultap chili pepper) were treated with the resultant solutions at 20 ml per pot by soil drenching and foliar spraying. Each sample was applied 4 days before inoculation with Xanthomonas euvesicatoria inoculum. As for a control group, the synthetic agrochemical pesticides Sungbocycline wettable powder (oxytetracycline, SUNGBO Chemicals) and Ilpum wettable powder (oxolinic acid 20% WP, Dongbang Agro) each were applied at a predetermined amount (1,000-fold diluted solution), and as for an untreated group, only Tween® 20 (250 μg/ml) was applied in the same manner without chemical agents.
Then, Xanthomonas euvesicatoria was subjected to static culture in TSA at 30° C. for about 48 hours, and then the cells were harvested using 2 ml of sterile water. The inoculum was prepared by diluting the harvested Xanthomonas euvesicatoria to an optical density value of 0.1 at 600 nm through a UV spectrometer. […]
Each treatment was repeated three times, and each experiment was repeated twice. The disease severity was determined using an index of 0 to 6 according to Abbasi, and thus the severity of bacterial spot formed on chili pepper leaves was investigated. […]

[2] = system: Bursaphelenchus xylophilus; test: Pine wilt disease field tests, Pinus densiflora adult trees aged 15 years (Example 9); details: for Disease severity (%): adult trees, JCK-1398 = 50-fold diluted spray-dried powder foliar spray, EB = A-Pharm trunk injection; for Control value (%): foliar spray, EB by trunk injection
Protocol: Based on the above results, the field test was additionally performed using Pinus densiflora adult trees aged 15 years (root diameter: 8-11 cm, height: 6-8 m) in order to investigate the control effect of the Bacillus subtilis JCK-1398 strain against pine wilt disease in adult trees. The field test was performed twice in 2018 (first field test) and 2019 (second field test). In the first field test, a spray-dried powder of a culture of the JCK-1398 strain (prepared by the same method as in Example 8) was used, and in the second field test, a spray-dried powder of a culture of the JCK-1398 strain was formulated into JCK-1398 20% SC (emulsion) before use. The JCK-1398 20% SC formulation was formulated with a composition of a JCK-1398 spray-dried powder (20.0%), CR-NF 135B (4.5%), xanthan gum (0.03%), a defoamer (0.1%), and water (75.37%).
The spray-dried powder of the culture of the JCK-1398 strain and the JCK-1398 20% SC formulation were diluted 50-fold and 2000-fold, respectively, in an aqueous solution containing 250 μg/ml Tween® 20, and then placed in a sprayer, and each pine tree was foliar-sprayed with about 1 L of each diluted solution. The treatment by foliar spraying was performed twice at an interval of 1 month. One week after each second treatment, each pine tree was inoculated, by trunk injection, with Bursaphelenchus xylophilus at 20,000 nematodes in the first field test and at 10,000 nematodes in the second field test. For a control group, A-Pharm (emamectin benzoate 2.15%, emulsion, Syngenta) was applied at 1 ml per diameter at breast by trunk injection, and the A-Pharm was applied once 1 week before the inoculation with Bursaphelenchus xylophilus. The untreated group was treated with only 250 μg/ml Tween@ 20 without chemical agents in the same manner. The results are shown in FIGS. 7A to 7C and Tables 13 and 14.

[3] = system: Bursaphelenchus xylophilus; test: Pine wilt disease seedling test of aerial spraying formulations (Example 11); details: EB control group; 40 days after inoculation
Protocol: In order to investigate the control effects of the Bacillus subtilis JCK-1398 strain against pine wilt disease through aerial spraying in adult trees, a novel formulation was prepared. The JCK-1398 10% SC formulation was formulated with a composition of a spray-dried powder of JCK-1398 (10.0%), CR-NF 135B (3.0%), xanthan gum (0.01%), a defoamer (0.1%), propylene glycol (5.0%), sodium benzoate (0.2%), and water (81.69%).
The JCK-1398 10% SC formulation and the JCK-1398 20% SC formulation (existing formulation, Example 9) each were prepared into 10-fold, 100-fold, and 500-fold diluted solutions, and each pine tree aged 3 years was foliar-sprayed with 100 μl ( 1/50 of the existing treatment amount) of each of the diluted solutions twice at an interval of 7 days, 2 weeks and 1 week before inoculation. Last, the inoculation with Bursaphelenchus xylophilus was performed 7 days after the second treatment with the diluted solution by the same method as in Example 4-4, and the degree of wilting was determined 40 days after the inoculation with Bursaphelenchus xylophilus.

[4] = system: Bursaphelenchus xylophilus; test: Pine wilt disease control by culture, culture filtrate and cell fraction (Example 6); details: samples at OD 0.8, 5 ml foliar spray; EB 20 mg/ml by trunk injection
Protocol: The JCK-1398 strain was cultured by the same method as in Example 4-1 and adjusted to an optical density value of 0.8.
The culture of the JCK-1398 strain was separated into a culture filtrate and a cell fraction by centrifugation (1,300 rpm, 15 min). The precipitated cell fraction was suspended by addition of the same volume of phosphate-buffered saline used before centrifugation. Each pine tree was sufficiently pre-treated with 5 ml of Tween® 20 (250 μg/ml) and then dried for 2 hours, so as to enable each sample (a culture, a culture filtrate, and a cell fraction) to be well adsorbed into leaves. Then, each of the culture, culture filtrate, and cell fraction was dissolved in an aqueous solution containing Tween® 20 (250 μg/ml) to an optical density value of 0.8, and then placed in a fine sprayer and each pine tree was foliar-sprayed with 5 ml of each sample. The nematicidal substance emamectin benzoate as a control group was dissolved in an aqueous solution containing 10% methanol to 20 mg/ml, followed by trunk injection.

## CCn1cc(C(=O)O)c(=O)c2cc3c(cc21)OCO3 [Oxolinic acid, oxolinic acid]
[1]; Folia spraying
  Control value (%): 27.1%

## CN(C)[C@@H]1C(O)=C(C(N)=O)C(=O)[C@@]2(O)C(O)=C3C(=O)c4c(O)cccc4[C@@](C)(O)[C@H]3[C@H](O)[C@@H]12 [Oxytetracyclin, oxytetracycline]
[1]; Soil drenching
  Control value (%): 20.8%

## emamectin benzoate [EB]
[2]; 1 Month after inoculation
  Disease severity (%): 0%
[2]; 2 Months after inoculation
  Disease severity (%): 1%
[2]; 3 Months after inoculation
  Disease severity (%): 2.5%
[2]; 4 Months after inoculation
  Disease severity (%): 7.5%
[2]; 5 Months after inoculation
  Disease severity (%): 7.5%
[2]; 6 Months after inoculation
  Disease severity (%): 10%
[2]; 2018-Year field test, powder 50-fold diluted, 20,000 nematodes
  Control value (%): 86.2%
[2]; 2019-Year field test, 20% SC 2000-fold diluted, 10,000 nematodes
  Control value (%): 75%
[3]
  Control value (%): 100.0%
[4]
  Control value (%): 97.0%
